Article PMC9114170, “Investigation of the Role of Hydrophobic Amino Acids on the Structure-Activity Relationship in the Antimicrobial Venom Peptide Ponericin L1” (The Journal of membrane biology, 2021)
Ends that are not written are not given here.

Key:
[1] = Acrylamide quenching of Trp fluorescence in absence and presence of lipid vesicles; format: physicochemical; conditions: 2 μM peptide in PBS pH 7.0, λex 295 nm, λem 340, average of three replicates ± SD; for Acrylamide quenching Ksv, PCPG: 3:1 DOPC:DOPG vesicles; for Acrylamide quenching Ksv, PCPG / Acrylamide quenching Ksv, PEPG / Acrylamide quenching Ksv, PC / Acrylamide quenching Ksv, PC/Chol: 250 μM lipid; for Acrylamide quenching Ksv, PEPG: 3:1 POPE:DOPG vesicles; for Acrylamide quenching Ksv, PC: DOPC vesicles; for Acrylamide quenching Ksv, PC/Chol: DOPC:Cholesterol vesicles; for Acrylamide quenching Ksv, PBS: no lipid vesicles
Procedure: (§1) To form small unilamellar vesicles (SUVs) sonication or ethanol dilution methods were implemented ([Caputo & London, 2019]). In all cases, lipid vesicle preparation was the same. Depending on the lipid composition, appropriate volumes of lipids in chloroform were mixed in a glass tube and then allowed to dry under N2 gas for 15 minutes. The lipid films were then placed in a vacuum desiccator and allowed to dry further under a vacuum for 1 hour. For vesicles formed through ethanol dilution methods, 10 μL of pure ethanol was added to the film, and then vortex until the dissipation of the film. While continuing to vortex, the appropriate amount of PBS was added. For vesicles formed using the method of sonication, PBS was added directly to the tube while being vortexed to create multilamellar vesicles (MLVs). The MLV suspension was covered with parafilm and then placed in a high-powered bath sonicator (Avanti Lipids) and subjected to sonication for 20 minutes to create SUVs.
Acrylamide quenching was monitored by titration of samples with 10 μL aliquots of 4M acrylamide titrated into peptide samples prepared as described above. These samples contained either or [0.25] mM total lipid. After each addition of acrylamide, Trp fluorescence intensity was measured using λex = 295 nm and λem = 340. Corrections to the emission intensity were made for background subtraction, dilutions, and inner filter effects in the excitation path as described previously. The same method to calculate Ksv was used as above.
In order to gain more insight into the bilayer interactions, fluorescence quenching approaches were utilized. The peptides were exposed to the aqueous quencher acrylamide in solution or when bound to vesicles. […] Thus, peptide Trp exposure to the aqueous milieu can be gauged by the extent of quenching by acrylamide. Stern-Volmer quenching plots were created to analyze the data and Ksv (slopes of a linear fit to the data) are shown in Figure 4 and Table 2. […] In the case of L1L and L1I, there was a significant reduction in quenching between the solution (free) state of the peptide and when bound to anionic vesicles, but a much smaller reduction if any when interacting with zwitterionic vesicles. This is consistent with a more deeply buried Trp in anionic bilayers.

[2] = Peptide binding to lipid vesicles by Trp emission barycenter shift; format: physicochemical; conditions: anionic and zwitterionic SUVs titrated into 2 μM peptide in PBS; λex 280 nm, λem 300 to 400 nm
Procedure: as §1, with “The MLV suspension was covered with parafilm and then placed in a high-powered bath sonicator (Avanti Lipids) and subjected to sonication for 20 minutes to create SUVs.” left out
All fluorescence spectroscopy experiments were preformed using a JY-Horiba Fluoromax4 instrument. […]
Considering that the first step in the mechanism of action of many AMPs is the binding to the bacterial cell surface, binding to model lipid vesicles was performed. […] The impact of lipid composition on binding to model vesicles was investigated using a simple vesicle titration experiment in which Trp fluorescence was measured after addition of lipid vesicles. […]

[3] = test system: E. coli D31 outer membrane; test: E. coli outer membrane permeabilization (nitrocefin / β-lactamase); format: cell-based, Escherichia coli; conditions: E. coli D31, nitrocefin hydrolysis, absorbance 486 nm, up to 90 minutes; peptide serially diluted from 15 μM; average of three replicates
Procedure: A single colony of E.coli D31 was taken from an LB agar plate and inoculated into fresh LB broth with 100 μg/mL ampicillin (LB-Amp), then place in a shaking incubator at 37 C (225 rpm) for ~ 18 hours. After the incubation period 100 μL was taken from the culture and diluted with 25 mL of fresh LB-Amp. The dilution was further incubated in the same conditions until an OD600 of 0.2 to 0.4 was obtained. Once the specified OD600 was reached the culture was then centrifuged at 2500 rpm for 15 minutes in a tabletop clinical centrifuge. The supernatant was discarded and then an equal amount of PBS (100 mM NaH2PO4, 200 mM NaCl, pH7) was used to resuspend the pellet.
Experimental samples were prepared in a 96-well plate in the order as follows: 10 μL of the six peptide variants that were serially diluted starting a concentration of 15 μM with the exception of the last row (used as a negative control 10 μL of 0.01% acetic acid). 80 μL of the resuspended bacteria culture, and 10 μL of 50 μg/mL nitrocefin in PBS. The absorbance was recorded at 486 nm in 5-minute intervals for a total run time of 90 minutes immediately following the addition of nitrocefin. The antimicrobial agent polymyxin B was used as a positive control. The values presented are the average of three replicates.
As the mechanism of action of the L1 venom peptide is likely a membrane disruptive mechanism, the effect of the hydrophobic substitutions on membrane permeabilization was investigated using E.coli and ovine red blood cells (RBCs). The permeabilization of the E. coli outer membrane was assayed using an enzyme-substrate pair in which the enzyme (β-lactamase) is located in the periplasmic space while the substrate (the chromogenic nitrocefin) is added to the exterior of cells. […] Similarly, the permeabilization of the E. coli inner membrane was assessed using a cytoplasmic enzyme, β-galactosidase, and a chromogenic substrate, ONPG. […]

| Sequence | Acrylamide quenching Ksv, PCPG [1] [M⁻¹] | Acrylamide quenching Ksv, PEPG [1] [M⁻¹] | Acrylamide quenching Ksv, PC [1] [M⁻¹] | Acrylamide quenching Ksv, PC/Chol [1] [M⁻¹] | Acrylamide quenching Ksv, PBS [1] [M⁻¹] | Extent of spectral shift (Trp emission barycenter) on binding lipid vesicles [2] | Outer membrane permeabilization [3] |
| --- | --- | --- | --- | --- | --- | --- | --- |
| FFKEFWTKMKGAGKAFFGKFKGFF [L1F] | 2.06 ± 0.97 | 1.80 ± 0.77 | 1.57 ± 3.49 | 1.63 ± 0.20 | 4.18 ± 4.79 | ~ 14 nm | increased permeability of the outer membrane |
| LLKELWTKMKGAGKALLGKLKGLL [L1L] | 3.51 ± 0.17 | 2.22 ± 4.04 | 4.08 ± 2.10 | 8.92 ± 0.94 | 4.26 ± 0.97 |  | increased permeability of the outer membrane |
